According to EP1233943B1, “IONIZABLE INDOLINONE DERIVATIVES AND THEIR USE AS PTK LIGANDS” (Sugen, Inc., priority 1999, dated 2001):
Values after ≈ are worked out from the molar mass of the structure shown. Like-named read-outs stand apart in the source and are kept apart here.

How the values were obtained:
[1] = Oral bioavailability of formulations in beagle dogs; type: in vivo; conditions: higher doses in fasted conditions
Method: The formulation described below enhance the oral bioaviability of COMPOUND IV in beagle dogs, a preclinical absorption model.
Both formulations contain 50 mg/gm of Pluronic F-68. The formulation at 50 mg/gm of COMPOUND IV contains 900 mgs of sesame oil and the one that contains 250 mg/gm of COMPOUND IV contains 700 mgs of sesame oil.
AUC refers to the area under the curve of the plasma concentration time curve and represents oral bioavilability (BA). Higher AUC indicates higher BA.

[2] = test system: EpH4-VEGF1 (murine epithelial); assay: in vivo; conditions: 75 mg/kg/d IP daily in DMSO; day 18; BALB/c nu/nu mice
Method: (§1) In most experiments, compound was administered daily.
(§2) Tumor growth was measured using venier calipers.

in vivo [3] = conditions: mouse, in vivo, ip, 75 mg/kg/day
Method: as §1, §2

in vivo [4] = assay: in vivo
Method: (§5) C6 cells were cultured in Ham's F-10 supplemented with 5% FBS and 2mM L-glutamine. […] All cell cultures were maintained at 37°C in a humidified atmosphere of 5-10% CO2.
(§6) Tumor cell lines (0.6 - 10 x 10^6 cells/animal; n = 8-20 animals/group) were implanted SC in the hindflank region of 8-12 week old BALB/c nu/nu female mice.
(§7) Tumor growth was measured using venier calipers. Tumor volumes were calculated as the product of length x width x height. Statistical analysis was carried out using Student's t-test.
(§8) C6 cells were implanted SC into athymic mice on day zero. […] On Day 16, all Group 3 animals were humanely sacrificed due to tumor burden (mean tumor diameter approximately 1300 mm^3), and the growth of tumors in Groups 1 and 2 was monitored until the mean tumor burden of each group reached 1300 mm^3.
(§9) Beginning one day post-implantation, compound (200 mg/kg/day in solution in a Labrasol®-containing vehicle) was administered to mice PO. Tumor growth was measured using venier calipers and tumor volumes were calculated as the product of length x width x height.

A431 (human epidermal) = assay: Subcutaneous xenograft model in athymic mice, A431; type: in vivo; conditions: 100 mg/kg/d IP daily in DMSO; day 24; BALB/c nu/nu mice
Method: as §1, §2

[5] = Subcutaneous xenograft model in athymic mice, A431; type: in vivo, human; conditions: mouse, in vivo, 100 mg/kg/day; 100 mg/kg/d IP daily in DMSO
Method: as §1, §2

SKOV3TP5 (human ovarian) = conditions: 75 mg/kg/d IP daily in DMSO; day 25; BALB/c nu/nu mice
Method: (§3) SF763T, SF767T, and SKOV3TP5 were derived by implanting the parental cells SC into BALB/c nu/nu mice.
For the SKOV3TP5 cells, fragments of resected tumors were injected SC into mice for in vivo passaging. This procedure was repeated five times before cells were returned to culture as described above.
as §1, §2

A375 (human melanoma) = assay: in vivo; conditions: 75 mg/kg/d IP in DMSO, dosed 3x/week; day 29; BALB/c nu/nu mice
Method: as §1, §2

in vivo [6] = conditions: mouse, in vivo, ip, 75 mg/kg/day; remark: listed apart in the source
Method: as §1, §2

SF763T (human glioma) = conditions: 75 mg/kg/d IP daily in DMSO; day 21; BALB/c nu/nu mice
Method: as §3
(§4) For the SF763T and SF767T cell lines, two to five mL of appropriate medium was added to the slurry and the tumor pieces were further mechanically teased apart. […] Medium was changed every two to three days. After three to five passages, the antibiotic supplements were removed and the cells maintained in antibiotic-free medium.
as §1, §2

SF767T (human glioma) = conditions: 75 mg/kg/d IP daily in DMSO; day 21; BALB/c nu/nu mice
Method: as §3, §4, §1, §2

Method for C6 (rat glioma): as §5, §6, §7, §8, §9
Method for physchem: The solution was filtered, appropriate dilutions made and the concentration of the compound in the supernatant was analyzed by a reverse phase HPLC method.

Cc1[nH]c(C=C2C(=O)Nc3ccccc32)c(C)c1CCC(=O)O [Example 1, 3-[2,4-dimethyl-5-(2-oxo-1,2-dihydro-indol-3-ylidenemethyl)-1H-pyrrol-3-yl]-propionic acid]
bioavailability [1]: low bioavailability | % Inhibition @ (day) [2]: 34 (18) % | mortality (in vivo [3]): 0% | mortality (in vivo [4]; ip, 100 mg/kg/day): 12.5% | mortality (in vivo [4]; po, 200 mg/kg/day): 10% | % Inhibition @ (day) (A431 (human epidermal)): 84 (24) % | mortality [5]: 12.5% | % Inhibition @ (day) (SKOV3TP5 (human ovarian)): 9 (25) % | % Inhibition @ (day) (A375 (human melanoma)): 56(29) % | mortality (in vivo [6]): 0% | solubility (physchem; 2% polysorbate-80): < 13 mg/mL | solubility (physchem; 30% peg 300 in buffer, pH 8.2, organic solvent or mixture): 32 mg/mL (≈ 103 mM) | % Inhibition @ (day) (SF763T (human glioma)): 48 (21) % | % Inhibition @ (day) (SF767T (human glioma)): 46 (21) % | % Inhibition @ (day) (C6 (rat glioma); 100 mg/kg/d IP daily in DMSO, day 18, BALB/c nu/nu mice): 65 (18) % | % Inhibition (at day) (C6 (rat glioma); IP 25 mg/kg Daily X 5, day 18): 1(18) % | % Inhibition (at day) (C6 (rat glioma); IP 50 mg/kg Daily X 5, day 18): 68 (18) % | % Inhibition (at day) (C6 (rat glioma); IP 50 mg/kg Daily, day 18): 27 (18) % | % Inhibition (at day) (C6 (rat glioma); IP 50 mg/kg Three times weekly, day 18): 25 (18) % | % Inhibition (at day) (C6 (rat glioma); IP 50 mg/kg Twice weekly, day 19): 36 (19) % | % Inhibition (at day) (C6 (rat glioma); IP 75 mg/kg Daily X 5, day 18): 54 (18) % | % Inhibition (at day) (C6 (rat glioma); IP 75 mg/kg Daily, day 18): 53 (18) % | % Inhibition (at day) (C6 (rat glioma); IP 75 mg/kg Three times weekly, day 18): 29 (18) % | % Inhibition (at day) (C6 (rat glioma); IP 75 mg/kg Twice weekly, day 19): 26 (19) % | efficacy on established tumors (C6 (rat glioma); IP 75 mg/kg/day from Day 7, when measurable tumors were present): efficacious | % Inhibition (at day) (C6 (rat glioma); IP 100 mg/kg Daily X 5 followed by Once weekly, day 15): 42(15) % | % Inhibition (at day) (C6 (rat glioma); IP 100 mg/kg Daily, day 18): 65 (18) % | % Inhibition (at day) (C6 (rat glioma); IP 100 mg/kg Three times weekly, day 18): 40 (18) % | % Inhibition (at day) (C6 (rat glioma); IP 100 mg/kg Twice weekly, day 19): 38 (19) % | tumor growth inhibition (C6 (rat glioma); IP 100 mg/kg twice weekly or three times weekly, statistically significant): approximately 40% | % Inhibition (at day) (C6 (rat glioma); IP 150 mg/kg Daily X 5 followed by once weekly, day 15): 51 (15) % | tumor growth inhibited (C6 (rat glioma); PO 200 mg/kg/day in a Labrasol-containing vehicle, Day 18 post-implantation, compared to vehicle-treated animals): 82%
